Laboratory results: patent publication US9796719B2, “Compounds and pharmaceutical compositions thereof for the treatment of inflammatory disorders” (GALAPAGOS NV, priority 2013, dated 2017)

Key:
Assay type in all cases: biochemical
[1] = tested on: LPA 18:2; test: Rat whole blood (plasma) LPA assay
Protocol: Whole blood is collected from rats or mouse by exsanguinations on sodium heparin tube, then after centrifugation at 3000 rpm for 15 min at 4° C., plasma is stored at −80° C. Compounds are diluted in DMSO in concentration dependent manner then 0.5 μL are dispensed into 96-wells plate placed in ice. Plasma is defrosted on ice then 49.5 μL of plasma are added into the well containing 0.5 μL of compound (1% DMSO final). Plates are covered with a lid in polypropylene and incubated at +37° C., 5% CO2, for 2 h under gentle shaking (except controls which are stored at −20° C.).
At the end of the incubation, controls are defrosted in ice and transferred in the incubated plates for LC-MS/MS analysis with a non GLP-validated method. For the analysis, plasma proteins from a 10 μL incubated plates are precipitated with an excess of methanol containing the internal standard, LPA 17:0. After centrifugation, the corresponding supernatant is injected on a C18 column. Analytes are eluted out of the column under isocratic conditions. An API5500 QTRAP mass spectrometer (ABSciex™) is used for the detection of LPA 18:2. No calibration curve is prepared for LPA 18:2, however relative quantities are evaluated based on the peak area.

[2] = biological target: T1, hENPP2 (UniProtKB/SwissProt Sequence ref Q13822) (Homo sapiens (Human), UniProt Q13822); test: FS3 hENPP2 assay (fluorogenic substrate FS-3); conditions: hENPP2, FS-3 as substrate
Procedure, shortened: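 Compound dilutions (1/5 steps, top concentration as added 20 μM) were preincubated 30 min at room temperature with hENPP2 (0.4 or 0.64 μg/mL final) in pH 8.0 Tris buffer containing NaCl, KCl, MgCl2, CaCl2 and 0.1% fatty-acid-free BSA. FS-3 (0.75 μM as added) was then hydrolysed for 30 min at 30 °C, and fluorescence was read at 485/520 nm.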

[3] = biological target: T1, hENPP2; test: LPC hENPP2 assay (choline release, LPC as substrate)
Procedure, shortened: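 Choline released from LPC by ENPP2 is quantified after stopping with stop-developer containing 0.6 U/mL choline oxidase, 0.6 U/mL peroxidase, 1.8 mM TOOS, 1.2 mM amino-antipyrine and 20 mM EGTA. Quinoneimine dye read at 555 nm after 30 min at room temperature.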

Row | IC50 [1] | IC50 [2] | IC50 [3] | SMILES
1 | > 1000 nM | 50 to 100 nM | > 1000 nM | CCc1nc2cnc(N3CCN(CC(=O)N4CC(O)C4)CC3)cn2c1N(C)c1nc(-c2ccc(F)cc2C#N)cs1 [Cpd 16, 2-(2-((2-ethyl-6-(4-(2-(3-hydroxyazetidin-1-yl)-2-oxoethyl)piperazin-1-yl)imidazo[1,2-a]pyrazin-3-yl)(methyl)amino)thiazol-4-yl)-5-fluorobenzonitrile]
2 | 100 to 500 nM |  | 100 to 500 nM | CCc1nc2ccc(C3CCN(S(C)(=O)=O)CC3)nn2c1N(C)c1nc(-c2ccc(F)cc2C#N)cs1 [Cpd 205, 2-(2-((2-ethyl-6-(1-(methylsulfonyl)piperidin-4-yl)imidazo[1,2-b]pyridazin-3-yl)(methyl)amino)thiazol-4-yl)-5-fluorobenzonitrile]
3 | 100 to 500 nM | 0.01 to 25 nM | 0.01 to 100 nM | CCc1nc2ccc(C3CCN(CC(=O)N4CC(O)C4)CC3)nn2c1N(C)c1cccc(-c2ccc(F)cc2C#N)n1 [Cpd 213, 2-(6-((2-ethyl-6-(1-(2-(3-hydroxyazetidin-1-yl)-2-oxoethyl)piperidin-4-yl)imidazo[1,2-b]pyridazin-3-yl)(methyl)amino)pyridin-2-yl)-5-fluorobenzonitrile]
4 | 100 to 500 nM | 0.01 to 25 nM | 100 to 500 nM | CCc1nc2ccc(N3CCN(CC4CNC(=O)O4)CC3)nn2c1N(C)c1nc(-c2ccc(F)cc2)cs1 (stereo not shown) [Cpd 40, 5-((4-(2-ethyl-3-((4-(4-fluorophenyl)thiazol-2-yl)(methyl)amino)imidazo[1,2-b]pyridazin-6-yl)piperazin-1-yl)methyl) oxazolidin-2-one]
5 | > 1000 nM |  | 500 to 1000 nM | CCc1nc2ccc(N3CCC4(CNC(=O)O4)C3)nn2c1N(C)c1nc(-c2ccc(F)cc2)cs1 (stereo not shown) [Cpd 118, 7-(2-ethyl-3-((4-(4-fluorophenyl)thiazol-2-yl)(methyl)amino)imidazo[1,2-b]pyridazin-6-yl)-1-oxa-3,7-diazaspiro[4.4] nonan-2-one]
6 | 0.01 to 100 nM | 0.01 to 25 nM | 0.01 to 100 nM | CCc1nc2ccc(N3CCN(S(=O)(=O)CCCN(C)C)[C@H](CO)C3)nn2c1N(C)c1nc(-c2ccc(F)cc2)cs1 [Cpd 63, (S)-(1-(3-(dimethylamino)propylsulfonyl)-4-(2-ethyl-3-((4-(4-fluorophenyl)thiazol-2-yl)(methyl)amino)imidazo[1,2-b]pyridazin-6-yl)piperazin-2-yl)methanol]
7 | 100 to 500 nM |  | 500 to 1000 nM | CCc1nc2ccc(C3CCN(S(C)(=O)=O)CC3)nn2c1N(C)c1nc(-c2ccc(F)cc2C#N)c(CO)s1 [Cpd 206, 2-(2-((2-ethyl-6-(1-(methylsulfonyl)piperidin-4-yl)imidazo[1,2-b]pyridazin-3-yl)(methyl)amino)-5-(hydroxymethyl)thiazol-4-yl)-5-fluorobenzonitrile]
8 | 100 to 500 nM | 0.01 to 25 nM | 100 to 500 nM | CCc1nc2ccc(C3CCN(CC(=O)N4CC(O)C4)CC3)nn2c1N(C)c1ccc(C#N)c(-c2ccc(F)cc2)n1 [Cpd 218, 6-((2-ethyl-6-(1-(2-(3-hydroxyazetidin-1-yl)-2-oxoethyl)piperidin-4-yl)imidazo[1,2-b]pyridazin-3-yl)(methyl)amino)-2-(4-fluorophenyl) nicotinonitrile]
9 | 0.01 to 100 nM | 0.01 to 25 nM | 100 to 500 nM | CN(c1nc(-c2ccc(F)cc2)cs1)c1c(CCC#N)nc2ccc(C3CCN(S(C)(=O)=O)CC3)nn12 [Compound 198, 3-(3-((4-(4-fluorophenyl)thiazol-2-yl)(methyl)amino)-6-(1-(methylsulfonyl)piperidin-4-yl)imidazo[1,2-b]pyridazin-2-yl)propanenitrile]

The remaining lines, values behind:

Row | SMILES | IC50 [1] | IC50 [2] | IC50 [3]
10 | CCc1nc2cnc(N3CCN(CC(=O)N4CC[C@H](O)C4)CC3)cn2c1N(C)c1nc(-c2ccc(F)cc2)c(C#N)s1 [Cpd 7, (S)-2-((2-ethyl-6-(4-(2-(3-hydroxypyrrolidin-1-yl)-2-oxoethyl)piperazin-1-yl)imidazo[1,2-a]pyrazin-3-yl)(methyl)amino)-4-(4-fluorophenyl) thiazole-5-carbonitrile] | 100 to 500 nM | 0.01 to 25 nM | 100 to 500 nM
11 | CCc1nc2cnc(C3CCN(CC(=O)N4CC[C@@H](O)C4)CC3)cn2c1N(C)c1nc(-c2ccc(F)cc2)c(C#N)s1 [Cpd 24, (R)-2-((2-ethyl-6-(1-(2-(3-hydroxypyrrolidin-1-yl)-2-oxoethyl)piperidin-4-yl)imidazo[1,2-a]pyrazin-3-yl)(methyl)amino)-4-(4-fluorophenyl) thiazole-5-carbonitrile] | 0.01 to 100 nM | 0.01 to 25 nM | 100 to 500 nM
12 | CCc1nc2cnc(C3CCN(CC(=O)N4CC[C@H](O)C4)CC3)cn2c1N(C)c1nc(-c2ccc(F)cc2)c(C#N)s1 [Cpd 25, (S)-2-((2-ethyl-6-(1-(2-(3-hydroxypyrrolidin-1-yl)-2-oxoethyl)piperidin-4-yl)imidazo[1,2-a]pyrazin-3-yl)(methyl)amino)-4-(4-fluorophenyl) thiazole-5-carbonitrile] | 0.01 to 100 nM | 0.01 to 25 nM | 100 to 500 nM
13 | CCc1nc2cnc(C3CCN(CC(=O)N4CC(O)C4)CC3)cn2c1N(C)c1nc(-c2ccc(F)cc2)c(C#N)s1 [Cpd 23, 2-((2-ethyl-6-(1-(2-(3-hydroxyazetidin-1-yl)-2-oxoethyl)piperidin-4-yl)imidazo[1,2-a]pyrazin-3-yl)(methyl)amino)-4-(4-fluorophenyl) thiazole-5-carbonitrile] | 100 to 500 nM | 0.01 to 25 nM | 100 to 500 nM
14 | CCc1nc2ccc(C3CCN(CC(=O)N4CC(O)C4)CC3)nn2c1N(C)c1ccnc(-c2ccc(F)cc2)n1 [Cpd 216, 2-(4-(2-ethyl-3-((2-(4-fluorophenyl)pyrimidin-4-yl)(methyl)amino)imidazo[1,2-b]pyridazin-6-yl)piperidin-1-yl)-1-(3-hydroxyazetidin-1-yl)ethanone] | > 1000 nM | 0.01 to 25 nM | 500 to 1000 nM
15 | CCc1nc2ccc(N3CCC(N4CCOCC4)C3)nn2c1N(C)c1nc(-c2ccc(F)cc2)c(C#N)s1 (stereo not shown) [Cpd 149, 2-((2-ethyl-6-(3-morpholino-pvrrolidin-1-yl)imidazo[1,2-b]pyridazin-3-yl)(methyl)amino)-4-(4-fluorophenyl) thiazole-5-carbonitrile] | 0.01 to 100 nM |  | 0.01 to 100 nM
16 | CCc1nc2cnc(N3CCN(CC(=O)N4CC(O)C4)CC3)cn2c1N(C)c1nc(-c2ccc(F)cc2)cs1 [Cpd 14, 2-(4-(2-ethyl-3-((4-(4-fluorophenyl)thiazol-2-yl)(methyl)amino)imidazo[1,2-a]pyrazin-6-yl)piperazin-1-yl)-1-(3-hydroxyazetidin-1-yl)ethanone] | > 1000 nM |  | > 1000 nM
17 | CCc1nc2cnc(N3CCN(CC(=O)N(C)C)CC3)cn2c1N(C)c1nc(-c2ccc(F)cc2)c(C#N)s1 [Cpd 5, 2-(4-(3-((5-cyano-4-(4-fluorophenyl)thiazol-2-yl)(methyl)amino)-2-ethylimidazo[1,2-a]pyrazin-6-yl)piperazin-1-yl)-N,N-dimethylacetamide] | > 1000 nM | 0.01 to 25 nM | 100 to 500 nM
18 | CCc1nc2cnc(N3CCN(CC(=O)N4CCOCC4)CC3)cn2c1N(C)c1nc(-c2ccc(F)cc2)c(C#N)s1 [Cpd 10, 2-((2-ethyl-6-(4-(2-morpholino-2-oxoethyl)piperazin-1-yl)imidazo[l,2-a]pyrazin-3-yl)(methyl)amino)-4-(4-fluorophenyl) thiazole-5-carbonitrile] | > 1000 nM | 0.01 to 25 nM | 100 to 500 nM
19 | CCc1nc2cnc(N3CCN(CC(=O)N4CC(O)C4)CC3)cn2c1N(C)c1ncc(C#N)c(-c2ccc(F)cc2)n1 [Cpd 19, 2-((2-ethyl-6-(4-(2-(3-hydroxyazetidin-1-yl)-2-oxoethyl)piperazin-1-yl)imidazo[1,2-a]pyrazin-3-yl)(methyl)amino)-4-(4-fluorophenyl) pyrimidine-5-carbonitrile] | > 1000 nM | > 100 nM | > 1000 nM
20 | CCc1nc2cnc(N3CCN(CC(=O)N4CC[C@@H](O)C4)CC3)cn2c1N(C)c1nc(-c2ccc(F)cc2)c(C#N)s1 [Cpd 6, (R)-2-((2-ethyl-6-(4-(2-(3-hydroxypyrrolidin-1-yl)-2-oxoethyl)piperazin-1-yl)imidazo[1,2-a]pyrazin-3-yl)(methyl)amino)-4-(4-fluorophenyl) thiazole-5-carbonitrile] | 100 to 500 nM | 0.01 to 25 nM | 100 to 500 nM
